ChEMBL document CHEMBL5365454, “Strong Binding of C-Glycosylic1,2-Thiodisaccharides to Galectin-3─Enthalpy-Driven Affinity Enhancement by Water-Mediated Hydrogen Bonds” (J Med Chem, 2023)

Key:
[1] = target: Galectin-3 (Homo sapiens) (UniProt P17931); test: Binding affinity to recombinant human galectin-3 carbohydrate recognition domain expressed in Escherichia coli BL21 (DE3) cells assessed as change in entropy by Nano-ITC analysis
[2] = target: Galectin-3 (Homo sapiens) (UniProt P17931); test: Binding affinity to recombinant human galectin-3 carbohydrate recognition domain expressed in Escherichia coli BL21 (DE3) cells assessed as change in enthalpy by Nano-ITC analysis
[3] = target: Galectin-3 (Homo sapiens) (UniProt P17931); test: Binding affinity to recombinant human galectin-3 carbohydrate recognition domain expressed in Escherichia coli BL21 (DE3) cells assessed as gibbs free energy change by Nano-ITC analysis

Sequence of Galectin-3 (Homo sapiens) (P17931 whole entry, the tested form may be a part): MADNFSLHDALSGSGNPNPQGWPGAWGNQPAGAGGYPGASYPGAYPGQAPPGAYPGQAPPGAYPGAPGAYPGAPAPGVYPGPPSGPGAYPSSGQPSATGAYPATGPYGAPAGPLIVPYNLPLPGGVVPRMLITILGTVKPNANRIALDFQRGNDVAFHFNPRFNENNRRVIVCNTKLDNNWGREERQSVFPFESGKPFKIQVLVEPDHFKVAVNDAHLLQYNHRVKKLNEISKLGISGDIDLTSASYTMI

-TdeltaS [1] | deltaH [2] | deltaG [3] | Compound
1.24 kcal/mol | -7.72 kcal/mol |  | COC(=O)[C@@H]1O[C@H](CO)[C@H](O)[C@H](O)[C@@H]1S[C@@H]1O[C@H](CO)[C@H](O)[C@H](O)[C@H]1O
-0.485 kcal/mol | -5.47 kcal/mol | -5.95 kcal/mol | LACTOSE, ANHYDROUS

The remaining lines, values behind:

Compound | -TdeltaS [1] | deltaH [2] | deltaG [3]
NC(=O)[C@@H]1O[C@H](CO)[C@H](O)[C@H](O)[C@@H]1S[C@@H]1O[C@H](CO)[C@H](O)[C@H](O)[C@H]1O | 0.0478 kcal/mol |  | 
OC[C@H]1O[C@@H](S[C@@H]2CO[C@H](CO)[C@H](O)[C@@H]2O)[C@H](O)[C@@H](O)[C@H]1O | 0.0956 kcal/mol | -6.48 kcal/mol | 
NC(=O)[C@@H]1O[C@H](CO)[C@@H](O)[C@H](O)[C@@H]1S[C@@H]1O[C@H](CO)[C@H](O)[C@H](O)[C@H]1O | 1.15 kcal/mol | -7.74 kcal/mol | 
OC[C@H]1O[C@@H](S[C@@H]2O[C@H](CO)[C@H](O)[C@H](O)[C@H]2O)[C@H](O)[C@@H](O)[C@H]1O | -1.21 kcal/mol | -4.73 kcal/mol | 
